pEC50: −log10 of the molar value.
Target: T1, ΔF508-CFTR (Homo sapiens, UniProt P13569, DEL508-508)
T1 construct: expressed in transfected cells
Experiment: Membrane potential optical (FRET/VIPR) assay, identification of potentiator compounds
Type: cell-based
Conditions: Table 3, assay not given; for % Activity: relative efficacy
How it was run: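 Double-addition potentiator screen: compound delivered in gluconate-substituted Cl^--free medium, membrane potential followed via CC2-DMPE/DiSBAC2(3) FRET on VIPR. Cells were ΔF508-CFTR-expressing NIH3T3 mouse fibroblasts, held 2 h at 37° C. then 24 h at 27° C. before assay.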

T1 sequence (P13569 with tags, fused parts or gaps DEL508-508): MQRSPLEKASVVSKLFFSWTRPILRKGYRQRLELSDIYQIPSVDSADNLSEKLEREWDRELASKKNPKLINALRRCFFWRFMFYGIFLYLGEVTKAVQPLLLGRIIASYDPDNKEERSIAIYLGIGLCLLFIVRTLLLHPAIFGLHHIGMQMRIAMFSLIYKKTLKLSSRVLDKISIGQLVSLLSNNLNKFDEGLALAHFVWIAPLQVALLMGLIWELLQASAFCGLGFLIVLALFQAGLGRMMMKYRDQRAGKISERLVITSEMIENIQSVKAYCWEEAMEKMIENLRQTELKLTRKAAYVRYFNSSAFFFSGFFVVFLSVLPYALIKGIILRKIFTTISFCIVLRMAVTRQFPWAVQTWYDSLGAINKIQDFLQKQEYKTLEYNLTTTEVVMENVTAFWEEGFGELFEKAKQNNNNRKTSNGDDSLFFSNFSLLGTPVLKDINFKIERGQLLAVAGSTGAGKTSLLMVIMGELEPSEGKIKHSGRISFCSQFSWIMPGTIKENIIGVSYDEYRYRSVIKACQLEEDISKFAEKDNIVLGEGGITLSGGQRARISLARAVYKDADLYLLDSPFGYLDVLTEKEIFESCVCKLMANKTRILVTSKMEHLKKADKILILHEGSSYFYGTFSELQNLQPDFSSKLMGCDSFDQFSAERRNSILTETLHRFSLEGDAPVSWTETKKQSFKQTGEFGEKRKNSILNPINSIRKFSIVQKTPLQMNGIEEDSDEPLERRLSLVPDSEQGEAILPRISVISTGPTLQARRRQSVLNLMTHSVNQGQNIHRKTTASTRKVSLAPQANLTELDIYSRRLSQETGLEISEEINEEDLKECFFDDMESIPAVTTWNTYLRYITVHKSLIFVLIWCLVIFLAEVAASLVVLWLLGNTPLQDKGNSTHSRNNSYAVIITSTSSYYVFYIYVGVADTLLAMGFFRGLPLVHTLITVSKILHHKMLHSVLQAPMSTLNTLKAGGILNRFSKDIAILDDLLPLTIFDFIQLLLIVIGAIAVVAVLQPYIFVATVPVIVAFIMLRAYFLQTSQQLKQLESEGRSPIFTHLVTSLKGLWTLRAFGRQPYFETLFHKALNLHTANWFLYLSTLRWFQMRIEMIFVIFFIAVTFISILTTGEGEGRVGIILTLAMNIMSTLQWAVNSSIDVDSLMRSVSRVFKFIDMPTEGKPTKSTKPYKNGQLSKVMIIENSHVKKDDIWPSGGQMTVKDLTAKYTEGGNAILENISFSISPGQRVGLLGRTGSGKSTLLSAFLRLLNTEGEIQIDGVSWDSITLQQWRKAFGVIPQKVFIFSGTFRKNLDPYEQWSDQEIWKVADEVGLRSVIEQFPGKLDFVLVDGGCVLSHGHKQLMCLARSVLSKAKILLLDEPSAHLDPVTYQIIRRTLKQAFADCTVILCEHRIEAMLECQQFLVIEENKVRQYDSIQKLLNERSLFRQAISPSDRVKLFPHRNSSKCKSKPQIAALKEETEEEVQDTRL

pEC50 | % Activity | SMILES
> 5.00 | ++ (between 25% to 100%) | COc1cc(N2CCCC2)ccc1NC(=O)c1c[nH]c2ccccc2c1=O [Compound 675, N-(2-methoxy-4-pyrrolidin-1-yl-phenyl)-4-oxo-1H-quinoline-3-carboxamide]
> 5.00 | ++ (between 25% to 100%) | C[C@H]1CCCN1c1ccc(NC(=O)c2c[nH]c3ccccc3c2=O)c(C(F)(F)F)c1 [Compound 618, (S)-N-(4-(2-methylpyrrolidin-1-yl)-2-(trifluoromethyl)phenyl)-4-oxo-1,4-dihydroquinoline-3-carboxamide]
> 5.00 | ++ (between 25% to 100%) | O=C(Nc1ccccc1-c1ccccn1)c1c[nH]c2ccccc2c1=O [Compound 692, 4-oxo-N-[2-(2-pyridyl)phenyl]-1H-quinoline-3-carboxamide]
> 5.00 | ++ (between 25% to 100%) | COc1cc(NC(=O)c2c[nH]c3ccccc3c2=O)ccc1-n1c(C)ccc1C [Compound 560, N-[4-(2,5-dimethylpyrrol-1-yl)-3-methoxy-phenyl]-4-oxo-1H-quinoline-3-carboxamide]
4.22 to 4.60 | + (<25%) | COc1c(N)cc(C(C)(C)C)cc1NC(=O)c1c[nH]c2ccccc2c1=O [Compound 55, N-(3-amino-2-methoxy-5-tert-butyl-phenyl)-4-oxo-1H-quinoline-3-carboxamide]
> 5.00 | ++ (between 25% to 100%) | COc1ccccc1Oc1ccc(C(F)(F)F)cc1NC(=O)c1c[nH]c2ccccc2c1=O [Compound 3, N-[2-(2-methoxyphenoxy)-5-(trifluoromethyl)phenyl]-4-oxo-1H-quinoline-3-carboxamide]
> 5.00 | ++ (between 25% to 100%) | O=C(Nc1ccccc1Cc1ccccc1)c1c[nH]c2ccccc2c1=O [Compound 265, N-(2-benzylphenyl)-4-oxo-1H-quinoline-3-carboxamide]
> 5.00 | ++ (between 25% to 100%) | O=C(Nc1ccc(C(F)(F)F)c(O)c1)c1c[nH]c2c(Cl)cccc2c1=O [Compound 716, 8-chloro-N-[3-hydroxy-4-(trifluoromethyl)phenyl]-4-oxo-1H-quinoline-3-carboxamide]
> 5.00 | ++ (between 25% to 100%) | Cc1c(NC(=O)c2c[nH]c3ccccc3c2=O)cccc1C(F)(F)F [Compound 387, N-[2-methyl-3-(trifluoromethyl)phenyl]-4-oxo-1H-quinoline-3-carboxamide]
4.22 to 4.60 | + (<25%) | NC(=O)c1ccccc1NC(=O)c1c[nH]c2ccccc2c1=O [Compound 331, N-(2-carbamoylphenyl)-4-oxo-1H-quinoline-3-carboxamide]
> 5.00 | ++ (between 25% to 100%) | Cc1cccc2[nH]cc(C(=O)Nc3ccc(N4CCC(C)(C)C4)cc3C(F)(F)F)c(=O)c12 [Compound 578, N-[4-(3,3-dimethylpyrrolidin-1-yl)-2-(trifluoromethyl)phenyl]-5-methyl-4-oxo-1H-quinoline-3-carboxamide]
> 5.00 | ++ (between 25% to 100%) | O=C(Nc1ccc(N2CCC[C@@H]2CO)cc1C(F)(F)F)c1c[nH]c2ccccc2c1=O [Compound 670, (R)-N-(4-(2-(hydroxymethyl)pyrrolidin-1-yl)-2-(trifluoromethyl)phenyl)-4-oxo-1,4-dihydroquinoline-3-carboxamide]
> 5.00 | ++ (between 25% to 100%) | C#Cc1ccc(NC(=O)c2c[nH]c3ccccc3c2=O)cc1 [Compound 332, N-(4-ethynylphenyl)-4-oxo-1H-quinoline-3-carboxamide]
> 5.00 | ++ (between 25% to 100%) | CCCc1ccc(NC)cc1NC(=O)c1c[nH]c2ccccc2c1=O [Compound 356, N-(5-methylamino-2-propyl-phenyl)-4-oxo-1H-quinoline-3-carboxamide]

Reference: US8614327B2 (Vertex Pharmaceuticals Incorporated, priority 2004, dated 2013)
